In article PMC6213900, “Design, Synthesis, and Cytotoxic Analysis of Novel Hederagenin–Pyrazine Derivatives Based on Partial Least Squares Discriminant Analysis” (International Journal of Molecular Sciences, 2018):
Values belong to the compound of their own block, whether it stands above or below them.

How the values were obtained:
[1] = test system: A549 (human non-small-cell lung cancer); assay: MTT cytotoxicity assay, A549; type: cell-based; conditions: Homo sapiens, A549, 72 h treatment, read-out: Half Maximal Inhibitory Concentration (IC50) A549
Experimental: (§1) The cytotoxicity of hederagenin derivatives in vitro was evaluated on three tumor cell lines (A549: human non-small-cell lung cancer; MCF-7: human mammary cancer; HepG2: human hepatocellular carcinoma) using the 3-(4,5-dimethylthiazol-2-yl)-2,5-diphenyltetrazolium bromide (MTT) assay. In addition, their toxicity evaluations were tested on H9c2 (murine heart myoblast) and MDCK (Madin–Darby canine kidney) cells. MCF-7, A549, HepG2, H9c2, and MDCK cells were obtained from the Chinese Academy of Medical Sciences and Peking Union Medical College. All of the cell lines were maintained in Dulbecco’s modified Eagle medium (DMEM) supplemented with 1% (v/v) penicillin/streptomycin and 10% (v/v) fetal bovine serum (FBS; Thermo Technologies, New York, NY, USA) under a humidified atmosphere containing 5% CO2 at 37 °C. The stock solutions of He derivatives were dissolved in dimethyl sulfoxide (DMSO; Sigma, St. Louis, MO, USA) and added at various concentrations to the cell culture. Cellular morphologies were observed using an inverted fluorescence microscope (Olympus IX71, Tokyo, Japan), a plate reader (BIORAD 550 spectrophotometer, Bio-rad Life Science Development Ltd., Beijing, China), and a Canton 2 flow cytometer (BD, New York, NY, USA). The antitumor activity of these compounds were evaluated on MCF-7, A549, HepG2, MDCK, and H9c2 cell lines using the MTT assay. Cells at a density of 3 × 10^3 cells/well were plated in a 96-multiwell plate in DMEM containing 10% FBS for 24 h at 37 °C with 5% CO2. Then, cells were treated for 72 h with the required concentrations (3.125, 6.25, 12.5, 25, or 50 μM) of the compounds and reference drugs (He and DDP) dissolved with the vehicle DMSO. After that, the culture substrate was replaced with 200 μL of DMEM containing 20 μL of MTT solution at 5 mg/mL and incubated for 4 h. The supernatant was removed and the dissolved formazans precipitated with 120 μL of DMSO. Wells without drugs were used as blanks. A plate reader was used to determine the absorbance at 490 nm. The above steps were repeated three times. The IC50 values were defined as the concentration of the compound which gave 50% growth inhibition, and they were calculated using Graph Pad Prism 5. The inhibition rate was calculated using the following formula, where OD is the optical density:% inhibition = 1 − (Sample group OD/Control group OD) × 100%. (1)

[2] = test system: MDCK (Madin–Darby canine kidney) cells; assay: MTT toxicity evaluation, MDCK; type: cell-based; conditions: Canis lupus familiaris, MDCK, 72 h treatment, non-tumor cells, read-out: Half Maximal Inhibitory Concentration (IC50) MDCK
Experimental: as §1

[3] = test system: HepG2 (human hepatocellular carcinoma); assay: MTT cytotoxicity assay, HepG2; type: cell-based; conditions: for IC50: Homo sapiens, HepG2, MTT, 72 h treatment, read-out: Half Maximal Inhibitory Concentration (IC50) HepG2
Experimental: as §1

[4] = test system: MCF-7 (human mammary cancer); assay: MTT cytotoxicity assay, MCF-7; type: cell-based; conditions: Homo sapiens, MCF7, 72 h treatment, read-out: Half Maximal Inhibitory Concentration (IC50) MCF-7
Experimental: as §1

[5] = test system: H9c2 (murine heart myoblast); assay: MTT toxicity evaluation, H9c2; type: cell-based; conditions: H9c2, 72 h treatment, non-tumor cells, read-out: Half Maximal Inhibitory Concentration (IC50) H9c2
Experimental: as §1

SMILES: Cc1nc(C)c(C(=O)OCCOC(=O)[C@]23CCC(C)(C)CC2C2=CCC4[C@@]5(C)CC[C@H](O)[C@@](C)(CO)C5CC[C@@]4(C)[C@]2(C)CC3)nc1C (stereo partly drawn) [Compound 13, 2-(((4aS,6aS,6bR,9R,10S,12aR)-10-Hydroxy-9-(hydroxymethyl)-2,2,6a,6b,9,12a-hexamethyl-1,2,3,4,4a,5,6,6a,6b,7,8,8a,9,10,11,12,12a,12b,13,14b-icosahydropicene-4a-carbonyl)oxy)ethyl-3,5,6-trimethylpyrazine-2-carboxylate]
melting point: 150.6 °C
IC50 [1]: 8.15 ± 0.17 µM
IC50 [2]: 23.22 ± 0.01 µM
IC50 [3]: 13.2 ± 0.29 µM
IC50 [4]: 18.03 ± 0.18 µM
IC50 [5]: 10.5 ± 0.61 µM

SMILES: CC1(C)CC[C@]2(C(=O)OCCCCOC(=O)c3cnccn3)CC[C@]3(C)C(=CCC4[C@@]5(C)CC[C@H](O)[C@@](C)(CO)C5CC[C@]43C)C2C1 (stereo partly drawn) [Compound 14, 4-(((4aS,6aS,6bR,9R,10S,12aR)-10-Gydroxy-9-(hydroxymethyl)-2,2,6a,6b,9,12a-hexamethyl-1,2,3,4,4a,5,6,6a,6b,7,8,8a,9,10,11,12,12a,12b,13,14b-icosahydropicene-4a-carbonyl)oxy)butyl-pyrazine-2-carboxylate]
melting point: 127 °C
IC50 [1]: 17.6 ± 2.33 µM
IC50 [2]: 18.1 ± 0.12 µM
IC50 [3]: 7.05 ± 0.17 µM
selective inhibition (SI = IC50 MCF-7/IC50 HepG2) ([3]; ratio of IC50 MCF-7 to IC50 HepG2): 4.43
IC50 [4]: 31.23 ± 0.15 µM
IC50 [5]: 15.9 ± 0.22 µM

SMILES: CC1(C)CC[C@]2(C(=O)OCCCCCl)CC[C@]3(C)C(=CCC4[C@@]5(C)CC[C@H](O)[C@@](C)(COC(=O)c6cnccn6)C5CC[C@]43C)C2C1 (stereo partly drawn) [Compound 21, ((3S,4R,6aR,6bS,8aS,14bR)-8a-((4-Chlorobutoxy)carbonyl)-3-hydroxy-4,6a,6b,11,11,14b-hexamethyl-1,2,3,4,4a,5,6,6a,6b,7,8,8a,9,10,11,12,12a,14,14a,14b-icosahydropicen-4-yl)methyl-pyrazine-2-carboxylate]
melting point: 117.1 °C
IC50 [1]: 9.29 ± 0.99 µM
IC50 [2]: 14.85 ± 0.06 µM
IC50 [3]: 7.99 ± 0.12 µM
IC50 [4]: 24.98 ± 0.18 µM
IC50 [5]: 16.68 ± 0.1 µM

SMILES: Cc1cncc(C(=O)OC[C@@]2(C)C3CC[C@]4(C)C(CC=C5C6CC(C)(C)CC[C@]6(C(=O)OCCCCCl)CC[C@]54C)[C@@]3(C)CC[C@@H]2O)n1 (stereo partly drawn) [Compound 22, ((3S,4R,6aR,6bS,8aS,14bR)-8a-((4-Chlorobutoxy)carbonyl)-3-hydroxy-4,6a,6b,11,11,14b-hexamethyl-1,2,3,4,4a,5,6,6a,6b,7,8,8a,9,10,11,12,12a,14,14a,14b-icosahydropicen-4-yl)methyl 6-methylpyrazine-2-carboxylate]
melting point: 126.9 °C
IC50 [1]: 10.4 ± 0.43 µM
IC50 [2]: 16.3 ± 1.57 µM
IC50 [3]: 7.15 ± 0.43 µM
IC50 [4]: 20.5 ± 3.63 µM
IC50 [5]: 16.26 ± 0.07 µM

SMILES: Cc1cnc(C(=O)OC[C@@]2(C)C3CC[C@]4(C)C(CC=C5C6CC(C)(C)CC[C@]6(C(=O)OCCCCCl)CC[C@]54C)[C@@]3(C)CC[C@@H]2O)cn1 (stereo partly drawn) [Compound 23, ((3S,4R,6aR,6bS,8aS,14bR)-8a-((4-Chlorobutoxy)carbonyl)-3-hydroxy-4,6a,6b,11,11,14b-hexamethyl-1,2,3,4,4a,5,6,6a,6b,7,8,8a,9,10,11,12,12a,14,14a,14b-icosahydropicen-4-yl)methyl 5-methylpyrazine-2-carboxylate]
melting point: 175.8 °C
IC50 [1]: 18.7 ± 0.32 µM
IC50 [2]: 19.5 ± 2.47 µM
IC50 [3]: 7.17 ± 1.09 µM
IC50 [4]: 21.3 ± 1.28 µM
IC50 [5]: 23.4 ± 0.55 µM

SMILES: Cc1nccnc1C(=O)OC[C@@]1(C)C2CC[C@]3(C)C(CC=C4C5CC(C)(C)CC[C@]5(C(=O)OCCCCCl)CC[C@]43C)[C@@]2(C)CC[C@@H]1O (stereo partly drawn) [Compound 24, ((3S,4R,6aR,6bS,8aS,14bR)-8a-((4-Chlorobutoxy)carbonyl)-3-hydroxy-4,6a,6b,11,11,14b-hexamethyl-1,2,3,4,4a,5,6,6a,6b,7,8,8a,9,10,11,12,12a,14,14a,14b-icosahydropicen-4-yl)methyl 3-methylpyrazine-2-carboxylate]
melting point: 106.1 °C
IC50 [1]: 22 ± 0.87 µM
IC50 [2]: 19.3 ± 1.47 µM
IC50 [3]: 6.89 ± 0.21 µM
IC50 [4]: 17.9 ± 2.8 µM
IC50 [5]: 27.9 ± 0.62 µM

Further lines, with some results ahead:

melting point: 146.2 °C
SMILES: Cc1ncc(C(=O)OCCOC(=O)[C@]23CCC(C)(C)CC2C2=CCC4[C@@]5(C)CC[C@H](O)[C@@](C)(CO)C5CC[C@@]4(C)[C@]2(C)CC3)nc1C (stereo partly drawn) [Compound 12, 2-(((4aS,6aS,6bR,9R,10S,12aR)-10-Hydroxy-9-(hydroxymethyl)-2,2,6a,6b,9,12a-hexamethyl-1,2,3,4,4a,5,6,6a,6b,7,8,8a,9,10,11,12,12a,12b,13,14b-icosahydropicene-4a-carbonyl)oxy)ethyl-5,6-dimethylpyrazine-2-carboxylate]
IC50 [1]: 10.1 ± 2.47 µM
IC50 [2]: 18.6 ± 0.71 µM
IC50 [3]: 14.42 ± 0.03 µM
IC50 [4]: 17.3 ± 0.58 µM
IC50 [5]: 13.2 ± 0.2 µM

melting point: 128 °C
SMILES: Cc1cncc(C(=O)OCCCCOC(=O)[C@]23CCC(C)(C)CC2C2=CCC4[C@@]5(C)CC[C@H](O)[C@@](C)(CO)C5CC[C@@]4(C)[C@]2(C)CC3)n1 (stereo partly drawn) [Compound 15, 4-(((4aS,6aS,6bR,9R,10S,12aR)-10-Hydroxy-9-(hydroxymethyl)-2,2,6a,6b,9,12a-hexamethyl-1,2,3,4,4a,5,6,6a,6b,7,8,8a,9,10,11,12,12a,12b,13,14b-icosahydropicene-4a-carbonyl)oxy)butyl-6-methylpyrazine-2-carboxylate]
IC50 [1]: 17.98 ± 0.04 µM
IC50 [2]: 17.1 ± 1.01 µM
IC50 [3]: 6.71 ± 0.2 µM
IC50 [4]: 19.8 ± 1.27 µM
IC50 [5]: 17.6 ± 1.85 µM

melting point: 166.1 °C
SMILES: Cc1cnc(C(=O)OCCCCOC(=O)[C@]23CCC(C)(C)CC2C2=CCC4[C@@]5(C)CC[C@H](O)[C@@](C)(CO)C5CC[C@@]4(C)[C@]2(C)CC3)cn1 (stereo partly drawn) [Compound 16, 4-(((4aS,6aS,6bR,9R,10S,12aR)-10-Hydroxy-9-(hydroxymethyl)-2,2,6a,6b,9,12a-hexamethyl-1,2,3,4,4a,5,6,6a,6b,7,8,8a,9,10,11,12,12a,12b,13,14b-icosahydropicene-4a-carbonyl)oxy)butyl-5-methylpyrazine-2-carboxylate]
IC50 [1]: 24.8 ± 0.66 µM
IC50 [2]: 20.12 ± 0.06 µM
IC50 [3]: 6.99 ± 0.63 µM
IC50 [4]: 28.49 ± 0.28 µM
IC50 [5]: 14.99 ± 0.12 µM

melting point: 145.2 °C
SMILES: Cc1nccnc1C(=O)OCCCCOC(=O)[C@]12CCC(C)(C)CC1C1=CCC3[C@@]4(C)CC[C@H](O)[C@@](C)(CO)C4CC[C@@]3(C)[C@]1(C)CC2 (stereo partly drawn) [Compound 17, 4-(((4aS,6aS,6bR,9R,10S,12aR)-10-Hydroxy-9-(hydroxymethyl)-2,2,6a,6b,9,12a-hexamethyl-1,2,3,4,4a,5,6,6a,6b,7,8,8a,9,10,11,12,12a,12b,13,14b-icosahydropicene-4a-carbonyl)oxy)butyl-3-methylpyrazine-2-carboxylate]
IC50 [1]: 19.6 ± 0.22 µM
IC50 [2]: 20.9 ± 3.03 µM
IC50 [3]: 8.15 ± 0.22 µM
IC50 [4]: 22.9 ± 0.66 µM
IC50 [5]: 22.3 ± 0.3 µM

melting point: 134.7 °C
SMILES: Cc1ncc(C(=O)OCCCCOC(=O)[C@]23CCC(C)(C)CC2C2=CCC4[C@@]5(C)CC[C@H](O)[C@@](C)(CO)C5CC[C@@]4(C)[C@]2(C)CC3)nc1C (stereo partly drawn) [Compound 18, 4-(((4aS,6aS,6bR,9R,10S,12aR)-10-Hydroxy-9-(hydroxymethyl)-2,2,6a,6b,9,12a-hexamethyl-1,2,3,4,4a,5,6,6a,6b,7,8,8a,9,10,11,12,12a,12b,13,14b-icosahydropicene-4a-carbonyl)oxy)butyl-5,6-dimethylpyrazine-2-carboxylate]
IC50 [1]: 16.17 ± 0.15 µM
IC50 [2]: 16.6 ± 0.22 µM
IC50 [3]: 11.9 ± 0.99 µM
IC50 [4]: 28.3 ± 0.41 µM
IC50 [5]: > 30 µM

melting point: 110.1 °C
SMILES: Cc1nc(C)c(C(=O)OCCCCOC(=O)[C@]23CCC(C)(C)CC2C2=CCC4[C@@]5(C)CC[C@H](O)[C@@](C)(CO)C5CC[C@@]4(C)[C@]2(C)CC3)nc1C (stereo partly drawn) [Compound 19, 4-(((4aS,6aS,6bR,9R,10S,12aR)-10-Hydroxy-9-(hydroxymethyl)-2,2,6a,6b,9,12a-hexamethyl-1,2,3,4,4a,5,6,6a,6b,7,8,8a,9,10,11,12,12a,12b,13,14b-icosahydropicene-4a-carbonyl)oxy)butyl-3,5,6-trimethylpyrazine-2-carboxylate]
IC50 [1]: 12.2 ± 0.4 µM
IC50 [2]: 16.43 ± 0.04 µM
IC50 [3]: 9.06 ± 0.32 µM
IC50 [4]: 27.6 ± 0.52 µM
IC50 [5]: 16.5 ± 0.22 µM
